In PubChem BioAssay (NCI):
Values joined by “and” are separate entries in the source; they are usually repeats but may differ in a detail not shown here. Equal values may be shown once.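 Dose response: 5 concentrations. Exposure: 48 h. Format: 96-well plates. Endpoint: linear interpolation; highest concentration if not reached. Here, GI50 denotes the concentration required for 50% inhibition of growth. TGI: total growth inhibition.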

Columns and labels:
Test in all cases: NCI tumour cell line growth inhibition, 48 h
[1] = system: SNB-78 CNS
[2] = system: COLO 205 colon
[3] = system: KM20L2 colon
[4] = system: NCI-H522 lung
[5] = system: SK-OV-3 ovarian
[6] = system: CAKI-1 renal
[7] = system: SK-MEL-5 melanoma
[8] = system: MOLT-4 leukemia
[9] = system: MALME-3M melanoma
[10] = system: SN12C renal
[11] = system: HS 578T breast

CN(CCO)/N=N/c1[nH]ncc1C(N)=O
TGI [1]: > 100 µM
TGI [2]: > 100 µM
TGI [3]: > 100 µM
TGI [4]: > 100 µM
TGI [5]: > 100 µM
TGI [6]: > 100 µM
TGI [7]: > 100 µM
TGI [8]: > 100 µM
TGI [9]: > 100 µM
TGI [10]: > 100 µM

c1ccc(CCn2cncn2)cc1
TGI [1]: > 100 µM
TGI [2]: > 100 µM
TGI [3]: > 100 µM
TGI [4]: > 100 µM
TGI [5]: > 100 µM
TGI [7]: > 100 µM
TGI [8]: > 100 µM
TGI [9]: > 100 µM
TGI [10]: > 100 µM

c1ccc(C2[C@@H]3CCCc4ccccc4C3=NN2c2ccccc2)cc1 (stereo partly specified)
TGI [1]: > 100 µM
TGI [2]: > 100 µM
TGI [3]: > 100 µM
TGI [4]: > 100 µM
TGI [7]: 47.1 µM
TGI [8]: > 100 µM
TGI [9]: > 100 µM
TGI [10]: > 100 µM

CC(=O)C1(O)Cc2c(O)c3c(c(O)c2C(OC2CC(N)C(O)C(C)O2)C1)C(=O)c1ccccc1C3=O (stereo unspecified)
TGI [1]: 0.592 µM
GI50 [2]: 0.0227 µM
TGI [2]: 0.803 µM and 0.181 µM
TGI [3]: 0.203 µM
TGI [11]: 0.391 µM
GI50 [4]: 0.0183 µM
TGI [4]: 0.119 µM and 0.0672 µM
GI50 [5]: < 0.0129 µM
TGI [5]: 0.788 µM and 0.129 µM
GI50 [7]: < 0.0119 µM
TGI [7]: 0.33 µM and 0.0697 µM
GI50 [8]: 0.00182 µM
TGI [8]: 0.0122 µM and < 0.109 µM
TGI [9]: 0.0666 µM
GI50 [10]: < 0.0117 µM
TGI [10]: 0.115 µM and 0.163 µM

CCOC(=O)CC[C@H](N)C(=O)N[C@H](Cc1ccc(N(CCCl)CCCl)cc1)C(=O)OCC
TGI [2]: 4.26 µM
TGI [11]: 6.64 µM
TGI [4]: 6.76 µM
TGI [5]: 11.7 µM
TGI [6]: 4.03 µM
TGI [7]: > 100 µM
TGI [8]: 31.5 µM
TGI [9]: 13.9 µM
TGI [10]: 16.7 µM

CCCCCCCCCCSCC(CO)NC(=O)/C=C/c1c(C)[nH]c(=O)[nH]c1=O (stereo unspecified)
TGI [1]: > 31.6 µM
TGI [2]: 8.39 µM and 17.6 µM
TGI [3]: > 50 µM
TGI [4]: 1.68 µM and 6.76 µM
GI50 [5]: 1.82 µM and 7.04 µM
TGI [5]: > 50 µM
GI50 [6]: 1.01 µM and 3.68 µM
TGI [6]: 8.25 µM and > 50 µM
TGI [7]: 8.06 µM and 13.1 µM
TGI [8]: 16.8 µM and 9.45 µM
TGI [9]: 6.28 µM and 2.78 µM
TGI [10]: 17.7 µM and > 32.8 µM

COc1ccc(C2C(Cl)C(=O)N2NC(=O)Cc2ccccc2)cc1OC (stereo unspecified)
TGI [1]: > 100 µM
TGI [2]: > 100 µM
TGI [3]: > 100 µM
TGI [4]: > 100 µM
TGI [5]: > 100 µM
TGI [6]: > 100 µM
TGI [7]: > 100 µM
TGI [8]: > 100 µM
TGI [9]: > 100 µM
TGI [10]: > 100 µM

NCCCC[C@H](N)C(=O)Nc1ccc(-c2nc3ccccc3s2)cc1Cl
TGI [2]: 17.9 µM
TGI [11]: 51.5 µM
TGI [4]: 11 µM
TGI [5]: 31.1 µM
TGI [6]: 19.2 µM
TGI [7]: 25.9 µM
TGI [8]: > 24.1 µM
TGI [9]: 28.3 µM
TGI [10]: 27.7 µM

CC1(C)CC[C@]2(C(=O)O)[C@H](O)C[C@]3(C)C(=CC[C@@H]4[C@@]5(C)CC[C@H](OC6OC(C(=O)O)C(O)C(O)C6O)C(C)(C)[C@@H]5CC[C@]43C)[C@@H]2C1 (stereo partly specified)
TGI [2]: > 100 µM
TGI [11]: 80.9 µM
TGI [4]: > 100 µM
TGI [5]: > 100 µM
TGI [6]: > 100 µM
TGI [7]: > 100 µM
TGI [8]: > 100 µM
TGI [9]: > 100 µM
TGI [10]: 94.9 µM

CCN(CC)CCNc1ccc2ncn3c4cc(=O)ccc4c(O)c1c23
TGI [1]: 25.4 µM
TGI [2]: 16.6 µM
TGI [3]: 16.4 µM
TGI [4]: 5.36 µM
TGI [5]: 41.9 µM
TGI [6]: 13.4 µM
TGI [7]: 12.1 µM
TGI [8]: 6.15 µM
TGI [9]: 14.9 µM
TGI [10]: 15.7 µM

Cc1cc(C)c(N=Nc2c(O)c(S(=O)(=O)O)cc3cc(S(=O)(=O)O)ccc23)cc1C
TGI [2]: > 100 µM
TGI [11]: > 100 µM
TGI [4]: > 100 µM
TGI [5]: > 100 µM
TGI [6]: > 100 µM
TGI [7]: > 100 µM
TGI [8]: > 100 µM
TGI [9]: > 100 µM
TGI [10]: > 100 µM

CC(/C=N/NC1=NCCCN1)=N\NC1=NCCCN1
TGI [2]: > 100 µM
TGI [11]: > 100 µM
TGI [4]: > 100 µM
TGI [5]: > 100 µM
TGI [6]: > 100 µM
TGI [7]: > 100 µM
TGI [8]: > 100 µM
TGI [9]: > 100 µM
TGI [10]: > 100 µM

O=C1C[C@H](c2ccc(O)c(O)c2)Oc2cc(O)cc(O)c21
TGI [1]: > 100 µM
TGI [2]: > 100 µM
TGI [3]: > 100 µM
TGI [4]: > 100 µM
TGI [5]: > 100 µM
TGI [6]: > 100 µM
TGI [7]: > 100 µM
TGI [8]: > 100 µM
TGI [9]: > 100 µM
TGI [10]: > 100 µM

O=C1N[C@@H](COc2ccc(C=Nc3ccc(CCc4ccc(N=Cc5ccc(OC[C@@H]6COC(=O)N6)cc5)cc4)cc3)cc2)CO1
TGI [2]: > 100 µM
TGI [11]: > 100 µM
TGI [4]: > 100 µM
TGI [5]: > 100 µM
TGI [6]: > 100 µM
TGI [7]: > 100 µM
TGI [8]: > 100 µM
TGI [9]: > 100 µM
TGI [10]: > 100 µM

O=C(O)CC(O)(C(=O)O)C(O)C(=O)O (stereo unspecified)
TGI [2]: > 1000 µM
TGI [11]: 867 µM
TGI [4]: > 1000 µM
TGI [5]: > 1000 µM
TGI [6]: > 1000 µM
TGI [7]: > 1000 µM
TGI [8]: > 1000 µM
TGI [9]: > 1000 µM
TGI [10]: > 1000 µM

CC(=O)n1ccc2c(Cl)ncnc21
TGI [1]: > 100 µM
TGI [2]: > 100 µM
TGI [3]: > 100 µM
TGI [4]: > 54.4 µM
TGI [5]: > 100 µM
TGI [6]: > 100 µM
TGI [7]: > 100 µM
TGI [8]: > 100 µM
TGI [10]: > 100 µM

CCCCCCCCCCCCCCCCP(=O)([O-])OCC[N+](C)(C)C
TGI [2]: 20.5 µM
TGI [11]: 33.4 µM
TGI [4]: 42.6 µM
TGI [5]: 24.6 µM
TGI [6]: 25.4 µM
TGI [7]: 30 µM
TGI [8]: 33.4 µM
TGI [9]: 36.6 µM
TGI [10]: 26.2 µM

O=C(Oc1cccc(Cl)c1)c1cc2cc(CCl)ccc2oc1=O
TGI [2]: 45.9 µM
TGI [11]: > 100 µM
TGI [4]: 49.5 µM
TGI [5]: > 100 µM
TGI [6]: > 100 µM
TGI [7]: 33.2 µM
TGI [8]: > 100 µM
TGI [9]: 33.5 µM
TGI [10]: > 100 µM

COc1cccc(-c2cc(=O)c3cc(Cl)cnc3[nH]2)c1
TGI [2]: 7.59 µM
TGI [11]: 47.6 µM
TGI [4]: 3.51 µM
TGI [5]: 74.8 µM
TGI [6]: 71.8 µM
TGI [7]: 7.33 µM
TGI [8]: 28.3 µM
TGI [9]: > 100 µM
TGI [10]: > 100 µM

COC(=O)C1C2CC3C(OC(=O)C31)C2OC(=O)[C@](OC)(c1ccccc1)C(F)(F)F (stereo partly specified)
TGI [1]: > 100 µM
TGI [2]: > 100 µM
TGI [3]: > 100 µM
TGI [4]: > 100 µM
TGI [5]: > 100 µM
TGI [6]: > 100 µM
TGI [7]: > 100 µM
TGI [8]: > 100 µM
TGI [9]: > 100 µM
TGI [10]: > 100 µM

C=CCN1CCC2(CC1)NC(=O)c1ccccc1O2
TGI [2]: > 100 µM
TGI [11]: > 100 µM
TGI [4]: > 100 µM
TGI [5]: > 100 µM
TGI [6]: > 100 µM
TGI [7]: > 100 µM
TGI [8]: > 100 µM
TGI [9]: > 100 µM
TGI [10]: > 100 µM

CCOP(=O)(OCC)C(Nc1ccc(F)cc1)c1ccccc1 (stereo unspecified)
TGI [2]: > 100 µM
TGI [11]: > 100 µM
TGI [4]: > 100 µM
TGI [5]: > 100 µM
TGI [6]: > 100 µM
TGI [7]: > 100 µM
TGI [8]: > 100 µM
TGI [9]: > 100 µM
TGI [10]: > 100 µM

O=C1NC2(C=Cc3c(ccc4ccccc34)O2)Oc2ccccc21 (stereo unspecified)
TGI [1]: 94.1 µM
TGI [2]: 42.5 µM
TGI [3]: > 100 µM
TGI [4]: 38.8 µM
TGI [7]: 29.5 µM
TGI [8]: 30.5 µM
TGI [9]: > 100 µM
TGI [10]: 63.4 µM

O=C1OC(=O)C2C1C(c1ccccc1[N+](=O)[O-])C=C(c1ccco1)N2c1ccncc1 (stereo unspecified)
TGI [2]: 23.9 µM
TGI [11]: > 100 µM
TGI [4]: 6.17 µM
TGI [5]: 32 µM
TGI [6]: 37.5 µM
TGI [7]: 19.7 µM
TGI [8]: 6.38 µM
TGI [9]: 40.6 µM
TGI [10]: 25 µM

CN(C)CCNc1nc2c(no[n+]2[O-])c2ccccc12
TGI [2]: 66.7 µM
TGI [11]: 76.6 µM
TGI [4]: 65.4 µM
TGI [5]: 98.8 µM
TGI [6]: 60.6 µM
TGI [7]: 28.4 µM
TGI [8]: 95.8 µM
TGI [9]: 37.1 µM
TGI [10]: > 100 µM

Nc1ccc(-c2nc3ccccc3s2)cc1Br
TGI [2]: > 100 µM
TGI [11]: > 100 µM
TGI [4]: > 100 µM
TGI [5]: > 100 µM
TGI [6]: > 100 µM
TGI [7]: > 100 µM
TGI [8]: > 100 µM
TGI [9]: > 100 µM
TGI [10]: > 100 µM

CC(C)(C)OC(=O)N1N=NC2C3OC(CC3=O)C21 (stereo unspecified)
TGI [1]: > 100 µM
TGI [2]: > 100 µM
TGI [3]: > 100 µM
TGI [4]: > 100 µM
TGI [5]: > 100 µM
TGI [6]: > 100 µM
TGI [8]: > 100 µM
TGI [9]: > 100 µM
TGI [10]: > 100 µM
